This note sets out measurements from patent publication US20220348558A1, “INHIBITORS OF ENCEPHALITIC ALPHAVIRUSES” (priority 2019, published 2022).

In one test the test system is WEEV California. Briefly: microbe, parasite or virus in culture. In kind it is cell-based. The note with it: Western equine encephalitis virus, Vero 76, 48 h, read-out: WEEV California EC50 nM.
In a further test the test system is VEEV TC83. Briefly: microbe, parasite or virus in culture. Format: cell-based. The note with it: Venezuelan equine encephalitis virus, Vero 76, 48 h, read-out: VEEV TC83 EC50 nM.

Where only a bound is given, the exact number is not on record here.

On to `COc1ccc(-n2c(C3CCCN3)nc3c(CCc4ccc(C)nc4)cc(C#N)cc3c2=O)cc1F` (centres unmarked) [Example 195, 3-(3-Fluoro-4-methoxyphenyl)-8-(2-(6-methylpyridin-3-yl)ethyl)-4-oxo-2-(pyrrolidin-2-yl)-3,4-dihydroquinazoline-6-carbonitrile], for which the EC50 with WEEV California and in the test with VEEV TC83 was 51 to 150 nM each time.

`COc1ccc(-n2c([C@@H]3CCCN3)nc3c(-c4ccncc4)cc([N+](=O)[O-])cc3c2=O)cc1F` [Example 84, (S)-3-(3-fluoro-4-methoxyphenyl)-6-nitro-8-(pyridin-4-yl)-2-(pyrrolidin-2-yl) quinazolin-4 (3H)-one]: the 50% effective concentration (EC50) in the test with WEEV California and in the test with VEEV TC83 was 1 to 50 nM in each case.

`COc1ccc(-n2c([C@H]3CCCN3)nc3c(F)cc(C#N)cc3c2=O)cc1` [Example 78, (R)-8-fluoro-3-(4-methoxyphenyl)-4-oxo-2-(pyrrolidin-2-yl)-3,4-dihydroquinazoline-6-carbonitrile]: the EC50 with WEEV California and with VEEV TC83 was 51 to 150 nM throughout.

As to `COc1ccc(-n2c([C@H]3C[C@H](O)CN3)nc3c(-c4ccc(C)nc4)cc(C#N)cc3c2=O)cc1F` [Example 122, 3-(3-fluoro-4-methoxyphenyl)-2-((2R,4S)-4-hydroxypyrrolidin-2-yl)-8-(6-methylpyridin-3-yl)-4-oxo-3,4-dihydroquinazoline-6-carbonitrile], the EC50 with WEEV California was in the range of 51 to 150 nM; in the test with VEEV TC83, 1 to 50 nM.

For the compound `COc1ccc(-n2c([C@@H]3CCNC3)nc3ccc([N+](=O)[O-])cc3c2=O)cc1` [Example 19, (R)-3-(4-methoxyphenyl)-6-nitro-2-(pyrrolidin-3-yl)quinazolin-4 (3H)-one], the EC50 in the test with WEEV California was in the range of 151 to 500 nM; in the test with VEEV TC83 it was 1 to 50 nM.

As to `CNCc1nc2ccc([N+](=O)[O-])cc2c(=O)n1-c1ccc(OC)cc1` [Example 210, 3-(4-methoxyphenyl)-2-((methylamino)methyl)-6-nitroquinazolin-4 (3H)-one], the EC50 in the test on WEEV California and in the test on VEEV TC83 was > 1000 nM throughout.

On to `COc1ccc(-n2c([C@@H]3CCCN3)nc3ccc([N+](=O)[O-])cc3c2=O)cc1` [Example 12, (S)-3-(4-methoxyphenyl)-6-nitro-2-(pyrrolidin-2-yl) quinazolin-4 (3H)-one], for which the figures for the EC50 with WEEV California and in the test on VEEV TC83 were 151 to 500 nM and 1 to 50 nM, respectively.

Regarding `COc1ccc(-n2c(-c3cocn3)nc3c(-c4ccc(C)nc4)cc(C#N)cc3c2=O)cc1F` [Example 197, 3-(3-fluoro-4-methoxyphenyl)-8-(6-methylpyridin-3-yl)-2-(oxazol-4-yl)-4-oxo-3,4-dihydroquinazoline-6-carbonitrile], the EC50 was > 1000 nM in the test with WEEV California and 501 to 1000 nM in the test on VEEV TC83.

Regarding `COc1ccc(-n2c(C3CCCN3)nc3c(-c4ccc(NS(C)(=O)=O)cc4)cc(C#N)cc3c2=O)cc1F` (centres unmarked) [Example 157, N-(4-(6-Cyano-3-(3-fluoro-4-methoxyphenyl)-4-oxo-2-(pyrrolidin-2-yl)-3,4-dihydroquinazolin-8-yl)phenyl)methanesulfonamide], the EC50 in the test on WEEV California and with VEEV TC83 was 51 to 150 nM each time.

With `CN[C@H](C)c1nc2ccc([N+](=O)[O-])cc2c(=O)n1-c1ccc(OC)cc1` [Example 207, (R)-3-(4-methoxyphenyl)-2-(1-(methylamino)ethyl)-6-nitroquinazolin-4 (3H)-one], the EC50 with WEEV California was 151 to 500 nM; in the test with VEEV TC83 it was 51 to 150 nM.

Turning to `COc1ccc(-n2c([C@@H]3CCCN3)nc3c(C)cc(C#N)cc3c2=O)cc1` [Example 51, (S)-3-(4-methoxyphenyl)-8-methyl-4-oxo-2-(pyrrolidin-2-yl)-3,4-dihydroquinazoline-6-carbonitrile], the values for the EC50 in the test on WEEV California and with VEEV TC83 were 501 to 1000 nM and 151 to 500 nM, respectively.

`COc1ccc(-n2c([C@H]3CCN(C)C3)nc3c(C)cc([N+](=O)[O-])cc3c2=O)cc1F` [Example 66, (S)-3-(3-fluoro-4-methoxyphenyl)-8-methyl-2-(1-methylpyrrolidin-3-yl)-6-nitroquinazolin-4 (3H)-one]: the EC50 in the test on WEEV California and with VEEV TC83 was 151 to 500 nM throughout.

Turning to `COc1ccc(-n2c([C@@H]3CCCN3)nc3c(F)cc(C#N)cc3c2=O)cc1` [Example 79, (S)-8-fluoro-3-(4-methoxyphenyl)-4-oxo-2-(pyrrolidin-2-yl)-3,4-dihydroquinazoline-6-carbonitrile], the EC50 in the test on WEEV California and in the test on VEEV TC83 was 501 to 1000 nM throughout.

Turning to `COc1ccc(-n2c([C@H]3CCCN3C)nc3c(-c4ccoc4)cc(C#N)cc3c2=O)cc1F` [Example 115, (R)-3-(3-fluoro-4-methoxyphenyl)-8-(furan-3-yl)-2-(1-methylpyrrolidin-2-yl)-4-oxo-3,4-dihydroquinazoline-6-carbonitrile], the EC50 with WEEV California and with VEEV TC83 was 1 to 50 nM in each case.

Regarding `COc1ccc(-n2c([C@H]3CCCN3)nc3c(-c4cccnc4)cc([N+](=O)[O-])cc3c2=O)cc1` [Example 85, (R)-3-(4-methoxyphenyl)-6-nitro-8-(pyridin-3-yl)-2-(pyrrolidin-2-yl) quinazolin-4 (3H)-one], the EC50 with WEEV California and in the test on VEEV TC83 was 1 to 50 nM in each case.

With `COCCOc1c(F)cc(-n2c(C3CCCN3)nc3c(-c4ccnc(C)c4)cc(C#N)cc3c2=O)cc1F` (centres unmarked) [Example 161, 3-(3,5-Difluoro-4-(2-methoxyethoxy)phenyl)-8-(2-methylpyridin-4-yl)-4-oxo-2-(pyrrolidin-2-yl)-3,4-dihydroquinazoline-6-carbonitrile], the EC50 lay within 151 to 500 nM in the test on WEEV California and 51 to 150 nM in the test with VEEV TC83.

As to `COc1ccc(-n2c([C@H]3CC(F)(F)CN3)nc3c(-c4ccc(C)nc4)cc(C#N)cc3c2=O)cc1F` [Example 184, (R)-2-(4,4-difluoropyrrolidin-2-yl)-3-(3-fluoro-4-methoxyphenyl)-8-(6-methylpyridin-3-yl)-4-oxo-3,4-dihydroquinazoline-6-carbonitrile], the EC50 in the test on WEEV California and with VEEV TC83 was 51 to 150 nM in each case.

Turning to `COc1ccc(-n2c(C3CCCN3)nc3c(-c4ccc(C(C)=O)nc4)cc(C#N)cc3c2=O)cc1F` (centres unmarked) [Example 129, 8-(6-acetylpyridin-3-yl)-3-(3-fluoro-4-methoxyphenyl)-4-oxo-2-(pyrrolidin-2-yl)-3,4-dihydroquinazoline-6-carbonitrile], the EC50 with WEEV California and in the test with VEEV TC83 was 1 to 50 nM throughout.

In the case of `COc1ccc(-n2c(C3CCCN3)nc3c(C#Cc4ccc(C)nc4)cc(C#N)cc3c2=O)cc1F` (centres unmarked) [Example 194, 3-(3-Fluoro-4-methoxyphenyl)-8-((6-methylpyridin-3-yl)ethynyl)-4-oxo-2-(pyrrolidin-2-yl)-3,4-dihydroquinazoline-6-carbonitrile], the EC50 with WEEV California and in the test on VEEV TC83 was 51 to 150 nM throughout.

Turning to `COc1ccc(-n2c([C@H]3CCCN3)nc3ccc([N+](=O)[O-])cc3c2=O)cc1F` [Example 24, (R)-3-(3-fluoro-4-methoxyphenyl)-6-nitro-2-(pyrrolidin-2-yl) quinazolin-4 (3H)-one], the EC50 in the test on WEEV California and in the test on VEEV TC83 was 1 to 50 nM throughout.

On to `COc1ccc(-n2c([C@@H]3C[C@@H](O)CN3)nc3c(-c4ccc(C)nc4)cc(C#N)cc3c2=O)cc1F` [Example 116, 3-(3-fluoro-4-methoxyphenyl)-2-((2S,4R)-4-hydroxypyrrolidin-2-yl)-8-(6-methylpyridin-3-yl)-4-oxo-3,4-dihydroquinazoline-6-carbonitrile], for which the EC50 in the test with WEEV California and in the test with VEEV TC83 was > 1000 nM in each case.

For `COc1ccc(-n2c(C3CC4CCC3N4)nc3c(-c4ccc(C)nc4)cc(C#N)cc3c2=O)cc1F` (centres unmarked) [Example 143, 2-(7-azabicyclo[2.2.1]heptan-2-yl)-3-(3-fluoro-4-methoxyphenyl)-8-(6-methylpyridin-3-yl)-4-oxo-3,4-dihydroquinazoline-6-carbonitrile], the concentration giving a half-maximal response (EC50) in the test with WEEV California was 151 to 500 nM; in the test with VEEV TC83 it was 51 to 150 nM.

Take `COc1ccc(-n2c([C@H]3CCCN3C3COC3)nc3ccc([N+](=O)[O-])cc3c2=O)cc1` [Example 11, (R)-3-(4-methoxyphenyl)-6-nitro-2-(1-(oxetan-3-yl)pyrrolidin-2-yl) quinazolin-4 (3H)-one]: the EC50 in the test with WEEV California was in the range of 501 to 1000 nM; with VEEV TC83, 51 to 150 nM.

For `COc1c(F)cc(-n2c(C3CCCNC3)nc3c(-c4ccc(C)nc4)cc(C#N)cc3c2=O)cc1F` (centres unmarked) [Example 189, 3-(3,5-difluoro-4-methoxyphenyl)-8-(6-methylpyridin-3-yl)-4-oxo-2-(piperidin-3-yl)-3,4-dihydroquinazoline-6-carbonitrile], the EC50 with WEEV California and in the test with VEEV TC83 was 51 to 150 nM each time.

On to `COc1c(F)cc(-n2c(C34CC(CN3)C4)nc3c(-c4cnc(C)c(C)c4)cc(C#N)cc3c2=O)cc1F` [Example 176, 2-(2-azabicyclo[2.1.1]hexan-1-yl)-3-(3,5-difluoro-4-methoxyphenyl)-8-(5,6-dimethylpyridin-3-yl)-4-oxo-3,4-dihydroquinazoline-6-carbonitrile], for which the EC50 with WEEV California and with VEEV TC83 was 1 to 50 nM throughout.

In the case of `COc1c(F)cc(-n2c(C3C[C@H](F)CN3)nc3c(-c4cc(C)nc(C)c4)cc(C#N)cc3c2=O)cc1F` (stereo partly drawn) [Example 160, 3-(3,5-Difluoro-4-methoxyphenyl)-8-(2,6-dimethylpyridin-4-yl)-2-((4S)-4-fluoropyrrolidin-2-yl)-4-oxo-3,4-dihydroquinazoline-6-carbonitrile], the half-maximal effective concentration (EC50) in the test with WEEV California and in the test with VEEV TC83 was 51 to 150 nM throughout.

For the compound `COc1ccc(-n2c([C@H]3CCCN3)nc3c(-c4ccncc4)cc(C#N)cc3c2=O)cc1F` [Example 109, (R)-3-(3-fluoro-4-methoxyphenyl)-4-oxo-8-(pyridin-4-yl)-2-(pyrrolidin-2-yl)-3,4-dihydroquinazoline-6-carbonitrile], the EC50 with WEEV California and with VEEV TC83 was 1 to 50 nM throughout.

With `COc1ccc(-n2c([C@H]3C[C@H](F)CN3)nc3c(C)cc(C#N)cc3c2=O)cc1` [Example 53, 2-((2R,4S)-4-fluoropyrrolidin-2-yl)-3-(4-methoxyphenyl)-8-methyl-4-oxo-3,4-dihydroquinazoline-6-carbonitrile], the EC50 in the test on WEEV California and in the test on VEEV TC83 was 151 to 500 nM in each case.
